# Assay results published in patent publication US10584115B2, “Substituted pyridine and pyrazine BMI-1 inhibitors” (PTC Therapeutics, Inc., priority 2013, dated 2020).
# Where two headings read alike, the source gives them in different places.
# System: Bmi-1 protein
# Assay: Sandwich ELISA Assay (Bmi-1 protein level in HT-1080 cells after compound treatment)
# Assay type: cell-based
# Procedure, shortened: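 HT-1080 cells exposed to compounds for 40–48 h at 37 °C (0.5% DMSO final), then lysed. Bmi-1 in lysates measured by sandwich ELISA (mouse monoclonal capture, rabbit anti-Bmi-1 detection, HRP anti-rabbit, TMB), read at OD450 with OD570 reference against a recombinant Bmi-1 standard curve (0–8000 pg/mL).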
# [1] = Table 1, Bmi-1 sandwich ELISA, read-out: ELISA EC50 value for Bmi-1 protein
compound,measurement,setting,value
"COc1ccc(Nc2cncc(-c3c(C(F)(F)F)nc4ccc(F)cn34)n2)cc1 [Cpd 57, 6-[6-fluoro-2-(trifluoromethyl)imidazo[1,2-a]pyridin-3-yl]-N-(4-methoxyphenyl)pyrazin-2-amine]",EC50,[1],< 0.001 µM
"FC(F)(F)c1ccc(Nc2cncc(-c3cccc4cc(C(F)(F)F)nn34)n2)cc1 [compound 15, N-[4-(trifluoromethyl)phenyl]-6-[2-(trifluoromethyl)pyrazolo[1,5-a]pyridin-7-yl]pyrazin-2-amine]",EC50,[1],0.01 to 0.1 µM
"Cc1nc2ccc(OC(F)(F)F)cc2n1-c1cncc(Nc2ccc(C(F)(F)F)cc2)n1 [compound 357, 6-[2-methyl-6-(trifluoromethoxy)-1H-benzimidazol-1-yl]-N-[4-(trifluoromethyl)phenyl]pyrazin-2-amine]",EC50,[1],0.1 to 3 µM
"Cc1nn2ccccc2c1-c1cncc(Nc2ccc(OC(F)(F)F)cc2)n1 [compound 500, 6-(2-methylpyrazolo[1,5-a]pyridin-3-yl)-N-[4-(trifluoromethoxy)phenyl]pyrazin-2-amine]",EC50,[1],0.01 to 0.1 µM
"CCc1nc2ncc(Cl)cc2n1-c1cncc(Nc2ccc(OC(F)F)cc2)n1 [compound 544, 6-(6-chloro-2-ethyl-1H-imidazo[4,5-b]pyridin-1-yl)-N-[4-(difluoromethoxy)phenyl]pyrazin-2-amine]",EC50,[1],< 0.001 µM
"Cc1nc2ccc(F)cc2n1-c1cncc(Nc2ccc(Cl)cc2)n1 [compound 554, N-(4-chlorophenyl)-6-(6-fluoro-2-methyl-1H-benzimidazol-1-yl)pyrazin-2-amine]",EC50,[1],0.01 to 0.1 µM
"Cc1ccc(Nc2cc(-n3c(C)ccc3C)cc(-n3c(C)nc4ccccc43)n2)cc1 [compound 617, 4-(2,5-dimethyl-1H-pyrrol-1-yl)-6-(2-methyl-1H-benzimidazol-1-yl)-N-(4-methylphenyl)pyridin-2-amine]",EC50,[1],0.01 to 0.1 µM
"OCc1nc2ccccn2c1-c1cncc(Nc2ccc(OC(F)F)cc2)n1 [compound 215, [3-(6-{[4-(difluoromethoxy)phenyl]amino}pyrazin-2-yl)imidazo[1,2-a]pyridin-2-yl]methanol]",EC50,[1],0.001 to 0.01 µM
"Cc1nn2ccccc2c1-c1cncc(Nc2ccc(OC(F)F)cc2)n1 [compound 498, N-[4-(difluoromethoxy)phenyl]-6-(2-methylpyrazolo[1,5-a]pyridin-3-yl)pyrazin-2-amine]",EC50,[1],0.001 to 0.01 µM
"Cc1ccc(Nc2cncc(-c3c(C)nn4ccccc34)n2)cc1 [compound 566, N-(4-methylphenyl)-6-(2-methylpyrazolo[1,5-a]pyridin-3-yl)pyrazin-2-amine]",EC50,[1],0.001 to 0.01 µM
"Cc1nn(C)c(C)c1-c1cncc(Nc2ccc(OC(F)(F)F)cc2)n1 [compound 105, N-[4-(trifluoromethoxy)phenyl]-6-(1,3,5-trimethyl-1H-pyrazol-4-yl)pyrazin-2-amine]",EC50,[1],0.01 to 0.1 µM
"Cc1nn(C)c(Cl)c1-c1cncc(Nc2ccc(OC(F)F)cc2)n1 [compound 413, 6-(5-chloro-1,3-dimethyl-1H-pyrazol-4-yl)-N-[4-(difluoromethoxy)phenyl]pyrazin-2-amine]",EC50,[1],0.001 to 0.01 µM
"N#Cc1cc(Nc2ccc(C(F)(F)F)cc2)nc(-c2c(C(F)(F)F)nc3ccc(F)cn23)c1 [compound 272, 2-[6-fluoro-2-(trifluoromethyl)imidazo[1,2-a]pyridin-3-yl]-6-{[4-(trifluoromethyl)phenyl]amino}pyridine-4-carbonitrile]",EC50,[1],0.01 to 0.1 µM
"Cc1nc2ncccc2n1-c1cncc(Nc2ccc(OC(F)(F)F)cc2)n1 [compound 95, 6-(2-methyl-1H-imidazo[4,5-b]pyridin-1-yl)-N-[4-(trifluoromethoxy)phenyl]pyrazin-2-amine]",EC50,[1],0.01 to 0.1 µM
"Cc1nc2ccc(O)cn2c1-c1cncc(Nc2ccc(C(F)(F)F)cc2)n1 [compound 378, 2-methyl-3-(6-{[4-(trifluoromethyl)phenyl]amino}pyrazin-2-yl)imidazo[1,2-a]pyridin-6-ol]",EC50,[1],0.01 to 0.1 µM
CCc1nc2ncc(Cl)cc2n1-c1cncc(Nc2ccccc2)n1 [compound 549],EC50,[1],0.1 to 3 µM
"CCc1nn2ccc(Cl)cc2c1-c1cncc(Nc2ccc(C(F)(F)F)cc2)n1 [compound 539, 6-(5-chloro-2-ethylpyrazolo[1,5-a]pyridin-3-yl)-N-[4-(trifluoromethyl)phenyl]pyrazin-2-amine]",EC50,[1],0.01 to 0.1 µM
"COc1ncc(Nc2cncc(-c3c(C(F)(F)F)nc4ccccn34)n2)cn1 [Cpd 201, 2-methoxy-N-{6-[2-(trifluoromethyl)imidazo[1,2-a]pyridin-3-yl]pyrazin-2-yl}pyrimidin-5-amine]",EC50,[1],0.001 to 0.01 µM
"FC(F)(F)c1ccc(Nc2cccc(-c3c(C(F)(F)F)nc4ncccn34)n2)cc1 [Cpd 64, 6-[2-(trifluoromethyl)imidazo[1,2-a]pyrimidin-3-yl]-N-[4-(trifluoromethyl)phenyl]pyridin-2-amine]",EC50,"read-out: ELISA EC50 value for Bmi-1 protein, Table 1, Bmi-1 sandwich ELISA",0.01 to 0.1 µM
"Cc1nc2cc(F)c(F)cc2n1-c1cncc(Nc2ccc(C=O)cc2)n1 [compound 502, 4-{[6-(5,6-difluoro-2-methyl-1H-benzimidazol-1-yl)pyrazin-2-yl]amino}benzaldehyde]",EC50,[1],0.01 to 0.1 µM
"N#Cc1cc(Nc2ccc(OC(F)F)cc2)nc(-c2c(C(F)(F)F)nc3ccccn23)c1 [Cpd 217, 2-{[4-(difluoromethoxy)phenyl]amino}-6-[2-(trifluoromethyl)imidazo[1,2-a]pyridin-3-yl]pyridine-4-carbonitrile]",EC50,[1],0.001 to 0.01 µM
"FC(F)(F)c1ccc(Nc2cccc(-n3c(C(F)(F)F)nc4ncccc43)n2)cc1 [compound 137, 6-[2-(trifluoromethyl)-1H-imidazo[4,5-b]pyridin-1-yl]-N-[4-(trifluoromethyl)phenyl]pyridin-2-amine]",EC50,[1],0.1 to 3 µM
"Nc1cc(Nc2ccc(C(F)(F)F)c(F)c2)nc(-c2c(C3CC3)nc3ccc(F)cn23)c1 [compound 364, 6-(2-cyclopropyl-6-fluoroimidazo[1,2-a]pyridin-3-yl)-N^2-[3-fluoro-4-(trifluoromethyl)phenyl]pyridine-2,4-diamine]",EC50,[1],0.01 to 0.1 µM
"Cc1nc2ccccc2n1-c1cncc(Nc2ccc(I)cc2)n1 [compound 619, N-(4-iodophenyl)-6-(2-methyl-1H-benzimidazol-1-yl)pyrazin-2-amine]",EC50,[1],0.001 to 0.01 µM
"CCc1ccc(Nc2cncc(-n3c(C)nc4ccccc43)n2)cc1 [compound 662, N-(4-ethylphenyl)-6-(2-methyl-1H-benzimidazol-1-yl)pyrazin-2-amine]",EC50,[1],0.1 to 3 µM
"COc1ccc2nc(C(F)(F)F)c(-c3cccc(Nc4ccc(O)cc4)n3)n2c1 [compound 113, 4-({6-[6-methoxy-2-(trifluoromethyl)imidazo[1,2-a]pyridin-3-yl]pyridin-2-yl}amino)phenol]",EC50,[1],0.1 to 3 µM
"COc1ccc2nc(C(F)(F)F)c(-c3cncc(Nc4ccc(F)cc4)n3)n2c1 [Cpd 681, N-(4-fluorophenyl)-6-[6-methoxy-2-(trifluoromethyl)imidazo[1,2-a]pyridin-3-yl]pyrazin-2-amine]",EC50,[1],0.1 to 3 µM
"Fc1cc(Nc2cncc(-c3c(C(F)(F)F)nc4ccccn34)n2)ccc1C(F)(F)F [Cpd 208, N-[3-fluoro-4-(trifluoromethyl)phenyl]-6-[2-(trifluoromethyl)imidazo[1,2-a]pyridin-3-yl]pyrazin-2-amine]",EC50,[1],0.01 to 0.1 µM
"N#Cc1cc(Nc2ccc(C(F)(F)F)c(F)c2)nc(-c2c(CO)nc3ccc(F)cn23)c1 [compound 395, 2-[6-fluoro-2-(hydroxymethyl)imidazo[1,2-a]pyridin-3-yl]-6-{[3-fluoro-4-(trifluoromethyl)phenyl]amino}pyridine-4-carbonitrile]",EC50,[1],0.1 to 3 µM
